Measured values from ChEMBL document CHEMBL6083254, “Optimization of B-Ring-Functionalized Antimalarial Tambjamines and Prodiginines” (J Med Chem, 2024).
pIC50: −log10 of the molar value. Activity calls are given as the source filed them. The calls are words filed in the database; no cut-off is given here.

Assays:
Plasmodium falciparum [1] = assay: microbe, parasite or virus in culture; details: Tm90-C2B, 72 h
[2] = target: T1, Voltage-gated inwardly rectifying potassium channel KCNH2 (Homo sapiens, UniProt Q12809); assay: Inhibition of hERG expressed in CHO-K1 cells at 5 uM relative to control; format: toxicity, cell-based; details: cho-k1, 5 µM
T1 sequence (Q12809 whole entry): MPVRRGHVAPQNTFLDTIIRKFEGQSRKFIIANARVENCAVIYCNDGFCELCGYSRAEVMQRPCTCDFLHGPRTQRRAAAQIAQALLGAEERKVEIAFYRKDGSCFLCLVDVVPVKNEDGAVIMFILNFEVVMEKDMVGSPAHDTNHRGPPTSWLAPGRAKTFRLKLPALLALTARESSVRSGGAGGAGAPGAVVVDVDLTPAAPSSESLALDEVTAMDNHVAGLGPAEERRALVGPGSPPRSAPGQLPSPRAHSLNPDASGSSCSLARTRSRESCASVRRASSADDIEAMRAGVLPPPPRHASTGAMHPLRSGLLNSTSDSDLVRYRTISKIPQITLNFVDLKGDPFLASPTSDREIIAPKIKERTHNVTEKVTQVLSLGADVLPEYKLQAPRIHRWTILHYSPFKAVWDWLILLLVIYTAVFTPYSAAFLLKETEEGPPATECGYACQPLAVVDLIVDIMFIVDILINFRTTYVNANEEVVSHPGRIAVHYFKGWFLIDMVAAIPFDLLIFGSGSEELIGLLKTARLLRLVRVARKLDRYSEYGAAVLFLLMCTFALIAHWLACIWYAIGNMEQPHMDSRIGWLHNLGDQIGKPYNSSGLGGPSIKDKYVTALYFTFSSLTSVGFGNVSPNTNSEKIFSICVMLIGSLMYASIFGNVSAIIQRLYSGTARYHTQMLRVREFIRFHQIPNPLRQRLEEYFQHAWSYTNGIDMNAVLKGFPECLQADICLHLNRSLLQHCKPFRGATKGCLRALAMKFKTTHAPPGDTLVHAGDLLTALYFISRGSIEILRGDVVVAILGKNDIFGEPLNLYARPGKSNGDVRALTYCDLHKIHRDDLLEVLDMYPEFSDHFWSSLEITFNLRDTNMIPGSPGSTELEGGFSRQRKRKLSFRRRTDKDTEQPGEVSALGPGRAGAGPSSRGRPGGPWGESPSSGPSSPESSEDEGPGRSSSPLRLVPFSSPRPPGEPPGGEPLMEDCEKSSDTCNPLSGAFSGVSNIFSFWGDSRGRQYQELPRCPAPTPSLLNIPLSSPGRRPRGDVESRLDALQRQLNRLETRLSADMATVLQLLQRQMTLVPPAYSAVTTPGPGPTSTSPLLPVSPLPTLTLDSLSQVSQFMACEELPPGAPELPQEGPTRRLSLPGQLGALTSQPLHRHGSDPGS

[3] = Mutagenicity in Salmonella typhimurium TA98 at 10 uM in presence of S9 fraction incubated for 5 days by AMES assay; format: toxicity, subcellular; details: salmonella enterica subsp. enterica serovar typhimurium, s9, 120 h, time 5 day
[4] = Mutagenicity in Salmonella typhimurium TA100 at 10 uM in presence of S9 fraction incubated for 5 days by AMES assay; format: toxicity, subcellular; details: salmonella enterica subsp. enterica serovar typhimurium, s9, 120 h, time 5 day
Plasmodium berghei [5] = assay: Antimalarial activity against liver-stage Plasmodium berghei sporozoites ANKA expressing GFP infected female Albino C57BL/6 mouse assessed as reduction in parasite growth at 40 mg/kg, po measured at 72 hrs by IVIS imaging analysis; format: functional; design: scale not given: the % may be the effect or the level left
[6] = Half life in ICR-CD1 mouse liver at 40 mg/kg, po; format: ADME, organism-based
[7] = Metabolic stability in human liver microsomes assessed as intrinsic clearance measured upto 60 mins LC-MS analysis
[8] = target: T1, Voltage-gated inwardly rectifying potassium channel KCNH2; assay: Inhibition of hERG expressed in CHO-K1 cells at 10 uM relative to control; format: toxicity, cell-based; details: cho-k1, 10 µM
[9] = %AUCextra in ICR-CD1 mouse plasma at 40 mg/kg, po; format: ADME, organism-based; details: in vivo
Plasmodium berghei [10] = assay: Antimalarial activity against liver-stage Plasmodium berghei sporozoites ANKA expressing GFP infected female Albino C57BL/6 mouse assessed as reduction in parasite growth at 40 mg/kg, po measured at 48 hrs by IVIS imaging analysis; format: functional; design: scale not given: the % may be the effect or the level left
[11] = Cmax in ICR-CD1 mouse plasma at 40 mg/kg, po; format: ADME, organism-based
in vitro = details: human
Description: Selectivity index, ratio of IC50 for cytotoxicity against human HepG2 cells assessed as cell viability to IC50 for antiplasmodial activity against asexual erythrocytic stage of Plasmodium falciparum D6 assessed as inhibition of parasitic growth incubated

Plasmodium berghei [12] = assay: Antimalarial activity against blood-stage Plasmodium berghei sporozoites ANKA expressing GFP infected in po dosed female Albino C57BL/6 mouse assessed as reduction in parasite load measured after 72 hrs by flow cytometry analysis; format: functional, organism-based; details: dose 20-40 mg/kg
[13] = Apparent oral clearance in ICR-CD1 mouse plasma at 40 mg/kg, po; format: ADME, organism-based; details: in vivo
Plasmodium yoelii [14] = assay: Antiplasmodial activity against asexual erythrocytic stage of Plasmodium yoelii infected in female CFI mouse model at 25 mg/kg, po administered once daily for 4 days and measured on day 5 by Giemsa staining based microscopic analysis; format: functional, organism-based; details: time 5.0 day
[15] = target: T1, Voltage-gated inwardly rectifying potassium channel KCNH2; assay: Inhibition of hERG expressed in CHO-K1 cells at 0.313 uM relative to control; format: toxicity, cell-based; details: cho-k1, 0.313 µM
[16] = Aqueous solubility of compound in PBS buffer at pH 7.4 incubated for 90 mins by UV-vis spectroscopic analysis; details: pH 7.4, 1.5 h
Plasmodium yoelii [17] = assay: Antiplasmodial activity against asexual erythrocytic stage of Plasmodium yoelii infected in po dosed female CFI mouse model assessed as reduction in parasitemia administered once daily for 4 days and measured on day 5 by Giemsa staining based microscopic analysis; format: functional; details: 120 h, time 5 day
[18] = Metabolic stability in mouse liver microsomes assessed as intrinsic clearance measured upto 60 mins LC-MS analysis
[19] = Metabolic stability in human liver microsomes assessed as half life measured upto 60 mins LC-MS analysis
[20] = Metabolic stability in mouse liver microsomes assessed as half life measured upto 60 mins LC-MS analysis
[21] = MRTlast in ICR-CD1 mouse plasma at 40 mg/kg, po; format: ADME, organism-based
Plasmodium falciparum [22] = assay: microbe, parasite or virus in culture; details: D6, 72 h
[23] = AUClast in ICR-CD1 mouse plasma at 40 mg/kg, po; format: ADME, organism-based
Plasmodium yoelii [24] = assay: Antiplasmodial activity against asexual erythrocytic stage of Plasmodium yoelii infected in female CFI mouse model assessed as reduction in parasitemia at 1 mg/kg, po administered once daily for 4 days and measured on day 5 by Giemsa staining based microscopic analysis relative to control; format: functional; design: scale not given: the % may be the effect or the level left; details: time 5 day
[25] = Tmax in ICR-CD1 mouse liver at 40 mg/kg, po; format: ADME, organism-based
[26] = Apparent oral clearance in ICR-CD1 mouse liver at 40 mg/kg, po; format: ADME, organism-based
Plasmodium falciparum [27] = assay: microbe, parasite or virus in culture; details: Dd2, 72 h
[28] = Cmax in ICR-CD1 mouse liver at 40 mg/kg, po; format: ADME, organism-based
Plasmodium yoelii [29] = assay: Antiplasmodial activity against asexual erythrocytic stage of Plasmodium yoelii infected in female CFI mouse model assessed as reduction in parasitemia at 10 mg/kg, po administered once daily for 4 days and measured on day 5 by Giemsa staining based microscopic analysis relative to control; format: functional; design: scale not given: the % may be the effect or the level left; details: time 5 day
[30] = target: T1, Voltage-gated inwardly rectifying potassium channel KCNH2; assay: Inhibition of hERG expressed in CHO-K1 cells at 2.5 uM relative to control; format: toxicity, cell-based; details: cho-k1, 2.5 µM
[31] = target: T1, Voltage-gated inwardly rectifying potassium channel KCNH2; assay: Inhibition of hERG expressed in CHO-K1 cells at 1.25 uM relative to control; format: toxicity, cell-based; details: cho-k1, 1.25 µM
[32] = MRTlast in ICR-CD1 mouse liver at 40 mg/kg, po; format: ADME, organism-based
[33] = Mutagenicity in Salmonella typhimurium TA98 at 10 uM in absence of S9 fraction incubated for 5 days by AMES assay; format: toxicity; details: salmonella enterica subsp. enterica serovar typhimurium, s9, 120 h, time 5 day
[34] = AUC (0 to infinity) in ICR-CD1 mouse plasma at 40 mg/kg, po; format: ADME, organism-based; details: in vivo
[35] = Mutagenicity in Salmonella typhimurium TA100 at 10 uM in absence of S9 fraction incubated for 5 days by AMES assay; format: toxicity; details: salmonella enterica subsp. enterica serovar typhimurium, s9, 120 h, time 5 day
Plasmodium berghei [36] = assay: Antimalarial activity against liver-stage Plasmodium berghei sporozoites ANKA expressing GFP infected in po dosed female Albino C57BL/6 mouse assessed as reduction in parasite load measured after 24 to 48 hrs by IVIS imaging analysis; format: functional, organism-based; details: dose 20-40 mg/kg, time 24-48 hrs
[37] = target: T1, Voltage-gated inwardly rectifying potassium channel KCNH2; assay: Inhibition of hERG expressed in CHO-K1 cells at 0.625 uM relative to control; format: toxicity, cell-based; details: cho-k1, 0.625 µM
HepG2 = assay: Cytotoxicity against human HepG2 cells assessed as cell viability incubated for 72 hrs by MTT assay; format: toxicity, cell-based; details: hepg2
[38] = AUC (0 to infinity) in ICR-CD1 mouse liver at 40 mg/kg, po; format: ADME, organism-based
[39] = AUClast in ICR-CD1 mouse liver at 40 mg/kg, po; format: ADME, organism-based
[40] = Tmax in ICR-CD1 mouse plasma at 40 mg/kg, po; format: ADME, organism-based
[41] = Half life in ICR-CD1 mouse plasma at 40 mg/kg, po; format: ADME, organism-based
[42] = %AUCextra in ICR-CD1 mouse liver at 40 mg/kg, po; format: ADME, organism-based; details: in vivo

In the case of CCCCCc1cc(/C=C2\N=C(c3ccc[nH]3)C=C2Oc2ccccc2)[nH]c1C.Cl, the pIC50 (Plasmodium falciparum [1]) was 8.06, the “inhibition (INH)” value [2] was 10.3% and the Activity [3] was “Non-toxic”. The Activity [4] was “Non-toxic”, the Activity (Plasmodium berghei [5]) was 74% and the half-life [6] was 5.03 h. The microsomal CLint at 1 h [7] was 4.02 µL/min/mg, the “inhibition (INH)” value [8] was 17.5% and the “%AUCextra” value [9] was 0.426%. For the same molecule, the Activity (Plasmodium berghei [10]) was 43%, the Cmax [11] was 199 ng/mL and the selectivity ratio (in vitro) was 884. For the same molecule, the Activity (Plasmodium berghei [12]) was “Dose-dependent-effect”, the CL/F [13] was 3.32 mL/min/kg and the Activity (Plasmodium yoelii [14]) was “Active”. The “inhibition (INH)” value [15] was 0.24%, the solubility [16] was less than 3.125 µM and the ED50 (Plasmodium yoelii [17]; Plasmodium yoelii, po, read-out: ED50) was 0.99 mg/kg/day. It also gave an ED50 (Plasmodium yoelii [17]) of 1.11 mg/kg/day, a microsomal CLint at 1 h [18] of 25.2 µL/min/mg and a half-life at 1 h [19] greater than 1 h. The half-life at 1 h [20] was 0.915 h, the MRT last [21] was 28.3 h and the pIC50 (Plasmodium falciparum [22]) was 8.15. It also gave an AUC(0-t) [23] of 5950 ng·h/mL, an Activity (Plasmodium yoelii [24]) of 54.6% and a Tmax [25] of 24 h. The CL/F [26] was 0.615 mL/min/kg, the pIC50 (Plasmodium falciparum [27]) was 8.41 and the Cmax [28] was 1130 ng/mL. For the same molecule, the Activity (Plasmodium yoelii [29]) was 100%, the “inhibition (INH)” value [30] was 10.3% and the “inhibition (INH)” value [31] was 9.85%. For the same molecule, the MRT last [32] was 29.1 h, the Activity [33] was “Non-toxic” and the AUC [34] was 5974 ng·h/mL. The Activity [35] was “Non-toxic”, the Activity (Plasmodium berghei [36]) was “Dose-dependent-effect” and the “inhibition (INH)” value [37] was 7.31%. The pIC50 (HepG2) was 5.20, the AUC(0-inf) [38] was 32000 ng·h/mL and the AUC(0-t) [39] was 31900 ng·h/mL. For the same molecule, the Tmax [40] was 30 h, the half-life [41] was 6.41 h and the “%AUCextra” value [42] was 0.267%.
